Assay results from PubChem BioAssay (NCI).
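All cell lines were grown in 96-well plates and treated with compound for 48 hours. TGI: concentration producing complete growth inhibition.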

Assays:
Experiment in all cases: growth of human tumour cells (NCI), 48 h
OVCAR-8 ovarian = tested on: OVCAR-8 ovarian
HL-60(TB) leukemia = tested on: HL-60(TB) leukemia
LOX IMVI melanoma = tested on: LOX IMVI melanoma
MALME-3M melanoma = tested on: MALME-3M melanoma
HOP-62 NSCLC = tested on: HOP-62 NSCLC
OVCAR-3 ovarian = tested on: OVCAR-3 ovarian
SNB-75 CNS = tested on: SNB-75 CNS
A498 renal = tested on: A498 renal
HCT-15 colon = tested on: HCT-15 colon
ACHN renal = tested on: ACHN renal
NCI-H23 lung = tested on: NCI-H23 lung
A549 NSCLC = tested on: A549 NSCLC
SR leukemia = tested on: SR leukemia
TK-10 renal = tested on: TK-10 renal
786-0 renal = tested on: 786-0 renal
HT29 colon = tested on: HT29 colon
CCRF-CEM leukemia = tested on: CCRF-CEM leukemia
UACC-62 melanoma = tested on: UACC-62 melanoma
SK-MEL-5 melanoma = tested on: SK-MEL-5 melanoma
RXF 393 renal = tested on: RXF 393 renal
COLO 205 colon = tested on: COLO 205 colon
HCT-116 colon = tested on: HCT-116 colon
SF-539 CNS = tested on: SF-539 CNS
UACC-257 melanoma = tested on: UACC-257 melanoma
MOLT-4 leukemia = tested on: MOLT-4 leukemia
SF-295 CNS = tested on: SF-295 CNS
MDA-MB-435 = tested on: MDA-MB-435
OVCAR-5 ovarian = tested on: OVCAR-5 ovarian
CAKI-1 renal = tested on: CAKI-1 renal
SF-268 CNS = tested on: SF-268 CNS
HCC-2998 colon = tested on: HCC-2998 colon
MDA-MB-231 breast = tested on: MDA-MB-231 breast
NCI/ADR-RES ovarian = tested on: NCI/ADR-RES ovarian
DU-145 prostate = tested on: DU-145 prostate
HOP-92 NSCLC = tested on: HOP-92 NSCLC
MDA-N = tested on: MDA-N
OVCAR-4 ovarian = tested on: OVCAR-4 ovarian
SW-620 colon = tested on: SW-620 colon
EKVX NSCLC = tested on: EKVX NSCLC
HS 578T breast = tested on: HS 578T breast
M14 melanoma = tested on: M14 melanoma
SN12C renal = tested on: SN12C renal
U251 CNS = tested on: U251 CNS
SK-MEL-2 melanoma = tested on: SK-MEL-2 melanoma
NCI-H522 lung = tested on: NCI-H522 lung
KM12 colon = tested on: KM12 colon
IGROV1 ovarian = tested on: IGROV1 ovarian
T-47D breast = tested on: T-47D breast
NCI-H460 lung = tested on: NCI-H460 lung
SK-OV-3 ovarian = tested on: SK-OV-3 ovarian
NCI-H226 lung = tested on: NCI-H226 lung
PC-3 prostate = tested on: PC-3 prostate
K-562 leukemia = tested on: K-562 leukemia
RPMI-8226 leukemia = tested on: RPMI-8226 leukemia
MCF7 breast = tested on: MCF7 breast
SNB-19 CNS = tested on: SNB-19 CNS
SK-MEL-28 melanoma = tested on: SK-MEL-28 melanoma
BT-549 breast = tested on: BT-549 breast
UO-31 renal = tested on: UO-31 renal

COc1cc(Br)c(CC2C3=C(CCN2C(=O)C2CCC2)CC2(CC3)OCCO2)cc1O (configuration not stated)
TGI (OVCAR-8 ovarian): > 100 µM | TGI (HL-60(TB) leukemia): > 100 µM | TGI (LOX IMVI melanoma): > 100 µM | TGI (MALME-3M melanoma): > 100 µM | TGI (HOP-62 NSCLC): > 100 µM | TGI (OVCAR-3 ovarian): > 100 µM | TGI (SNB-75 CNS): 76.8 µM | TGI (A498 renal): > 100 µM | TGI (HCT-15 colon): > 100 µM | TGI (ACHN renal): > 100 µM | TGI (NCI-H23 lung): 79.7 µM | TGI (A549 NSCLC): > 100 µM | TGI (SR leukemia): > 100 µM | TGI (TK-10 renal): > 100 µM | TGI (786-0 renal): > 100 µM | TGI (HT29 colon): 60.3 µM | TGI (CCRF-CEM leukemia): > 100 µM | TGI (UACC-62 melanoma): > 100 µM | TGI (SK-MEL-5 melanoma): > 100 µM | TGI (RXF 393 renal): 44.4 µM | TGI (COLO 205 colon): 34.8 µM | TGI (HCT-116 colon): > 100 µM | TGI (SF-539 CNS): > 100 µM | TGI (UACC-257 melanoma): > 100 µM | TGI (MOLT-4 leukemia): > 100 µM | TGI (SF-295 CNS): > 100 µM | TGI (MDA-MB-435): 64 µM | TGI (OVCAR-5 ovarian): > 100 µM | TGI (CAKI-1 renal): > 100 µM | TGI (SF-268 CNS): > 100 µM | TGI (HCC-2998 colon): > 100 µM | TGI (MDA-MB-231 breast): > 100 µM | TGI (NCI/ADR-RES ovarian): > 100 µM | TGI (DU-145 prostate): > 100 µM | TGI (HOP-92 NSCLC): > 100 µM | TGI (MDA-N): > 100 µM | TGI (OVCAR-4 ovarian): > 100 µM | TGI (SW-620 colon): > 100 µM | TGI (EKVX NSCLC): > 100 µM | TGI (HS 578T breast): > 100 µM | TGI (M14 melanoma): > 100 µM | TGI (SN12C renal): > 100 µM | TGI (U251 CNS): > 100 µM | TGI (SK-MEL-2 melanoma): > 100 µM | TGI (NCI-H522 lung): 98.4 µM | TGI (KM12 colon): > 100 µM | TGI (IGROV1 ovarian): > 100 µM | TGI (T-47D breast): > 100 µM | TGI (NCI-H460 lung): > 100 µM | TGI (SK-OV-3 ovarian): > 100 µM | TGI (NCI-H226 lung): > 100 µM | TGI (PC-3 prostate): > 100 µM | TGI (K-562 leukemia): > 100 µM | TGI (RPMI-8226 leukemia): > 100 µM | TGI (MCF7 breast): > 100 µM | TGI (SNB-19 CNS): > 100 µM | TGI (SK-MEL-28 melanoma): > 100 µM

COc1ccccc1CNCCCCCNCCCCCCCCCCNCCCCCNCc1ccccc1OC
TGI (OVCAR-8 ovarian): 77.7 µM | TGI (HL-60(TB) leukemia): 43.7 µM | TGI (LOX IMVI melanoma): 30.3 µM | TGI (MALME-3M melanoma): 61.3 µM | TGI (HOP-62 NSCLC): 31.8 µM | TGI (OVCAR-3 ovarian): > 100 µM | TGI (SNB-75 CNS): 70.3 µM | TGI (HCT-15 colon): > 100 µM | TGI (ACHN renal): > 100 µM | TGI (NCI-H23 lung): > 100 µM | TGI (A549 NSCLC): 58.8 µM | TGI (SR leukemia): 32.2 µM | TGI (TK-10 renal): > 100 µM | TGI (786-0 renal): 42.1 µM | TGI (HT29 colon): > 100 µM | TGI (CCRF-CEM leukemia): 32.4 µM | TGI (UACC-62 melanoma): > 100 µM | TGI (SK-MEL-5 melanoma): > 100 µM | TGI (RXF 393 renal): 96.3 µM | TGI (COLO 205 colon): > 100 µM | TGI (HCT-116 colon): 24.1 µM | TGI (SF-539 CNS): 21.2 µM | TGI (MOLT-4 leukemia): 26.5 µM | TGI (SF-295 CNS): > 100 µM | TGI (MDA-MB-435): > 100 µM | TGI (SF-268 CNS): > 100 µM | TGI (HCC-2998 colon): 39.2 µM | TGI (BT-549 breast): 45.5 µM | TGI (MDA-MB-231 breast): 31.6 µM | TGI (DU-145 prostate): 33.5 µM | TGI (UO-31 renal): > 100 µM | TGI (HOP-92 NSCLC): > 100 µM | TGI (MDA-N): 34.5 µM | TGI (OVCAR-4 ovarian): > 100 µM | TGI (SW-620 colon): > 100 µM | TGI (HS 578T breast): 5.78 µM | TGI (M14 melanoma): > 100 µM | TGI (SN12C renal): 79.6 µM | TGI (U251 CNS): 32.9 µM | TGI (SK-MEL-2 melanoma): 34.7 µM | TGI (NCI-H522 lung): 42.2 µM | TGI (KM12 colon): 58.4 µM | TGI (IGROV1 ovarian): 45 µM | TGI (T-47D breast): > 100 µM | TGI (NCI-H460 lung): 26.8 µM | TGI (NCI-H226 lung): 34.3 µM | TGI (K-562 leukemia): 31.7 µM | TGI (RPMI-8226 leukemia): > 100 µM | TGI (MCF7 breast): 32.7 µM | TGI (SNB-19 CNS): > 100 µM | TGI (SK-MEL-28 melanoma): > 100 µM

O=C1c2ccccc2CC12CCC1(CC2)OCCO1
TGI (OVCAR-8 ovarian): > 100 µM | TGI (HL-60(TB) leukemia): > 100 µM | TGI (LOX IMVI melanoma): > 100 µM | TGI (MALME-3M melanoma): > 100 µM | TGI (HOP-62 NSCLC): > 100 µM | TGI (SNB-75 CNS): > 100 µM | TGI (HCT-15 colon): > 100 µM | TGI (ACHN renal): > 100 µM | TGI (NCI-H23 lung): > 100 µM | TGI (A549 NSCLC): > 100 µM | TGI (SR leukemia): > 100 µM | TGI (TK-10 renal): > 100 µM | TGI (786-0 renal): > 100 µM | TGI (HT29 colon): > 100 µM | TGI (CCRF-CEM leukemia): > 100 µM | TGI (UACC-62 melanoma): > 100 µM | TGI (RXF 393 renal): > 100 µM | TGI (COLO 205 colon): > 100 µM | TGI (HCT-116 colon): > 100 µM | TGI (SF-539 CNS): > 100 µM | TGI (UACC-257 melanoma): > 100 µM | TGI (MOLT-4 leukemia): > 100 µM | TGI (SF-295 CNS): > 100 µM | TGI (OVCAR-5 ovarian): > 100 µM | TGI (CAKI-1 renal): > 100 µM | TGI (SF-268 CNS): > 100 µM | TGI (HCC-2998 colon): > 100 µM | TGI (BT-549 breast): > 100 µM | TGI (MDA-MB-231 breast): > 100 µM | TGI (NCI/ADR-RES ovarian): > 100 µM | TGI (DU-145 prostate): > 100 µM | TGI (UO-31 renal): > 100 µM | TGI (MDA-N): > 100 µM | TGI (OVCAR-4 ovarian): > 100 µM | TGI (SW-620 colon): > 100 µM | TGI (EKVX NSCLC): > 100 µM | TGI (HS 578T breast): > 100 µM | TGI (M14 melanoma): > 100 µM | TGI (SN12C renal): > 100 µM | TGI (U251 CNS): > 100 µM | TGI (SK-MEL-2 melanoma): > 100 µM | TGI (NCI-H522 lung): > 100 µM | TGI (KM12 colon): > 100 µM | TGI (IGROV1 ovarian): > 100 µM | TGI (T-47D breast): > 100 µM | TGI (NCI-H460 lung): > 100 µM | TGI (SK-OV-3 ovarian): > 100 µM | TGI (NCI-H226 lung): > 100 µM | TGI (PC-3 prostate): > 100 µM | TGI (K-562 leukemia): > 100 µM | TGI (RPMI-8226 leukemia): > 100 µM | TGI (MCF7 breast): > 100 µM | TGI (SNB-19 CNS): > 100 µM | TGI (SK-MEL-28 melanoma): > 100 µM
